Source: patent US20250360167A1 (Keryx Biopharmaceuticals, Inc., priority 2013, published 2025)

What was measured:
[1] = Phase 2 trial (Example 2): safety and tolerability; assay type: in vivo, human
Protocol: The safety population in the study included all randomized patients who took at least one dose of study drug.
Serious adverse events occurred in six KRX-0502 subjects (8%) versus ten placebo subjects (14%). Two deaths were recorded in the study, both from the placebo group.

[2] = test system: Product Of Calcium And Phosphorus; assay: Phase 3 trial (Example 1): phosphorus times calcium product; assay type: in vivo, human
Protocol: Serum phosphorus and calcium were performed at Screening (Visit 0); weekly during the Washout Period after Visit 1 (Week −2); at Visit 4 (Randomization Visit); at Visits 5 (Week 1), 6 (Week 2), 7 (Week 4), 8 (Week 6), 9 (Week 8), 10 (Week 10), 11 (Week 12), 12 (Week 16), 13 (Week 20), 14 (Week 24), 15 (Week 28), 16 (Week 32), 17 (Week 36), 18 (Week 40), 19 (Week 44), 20 (Week 48), and 21 (Week 52) of the 52-week Safety Assessment Period; and at Visits 22 (Week 53), 23 (Week 54), 24 (Week 55) and 25 (Week 56) of the Efficacy Assessment Period.
These variables will be analyzed using LOCF methodology. ANCOVA will be employed. The model will include treatment (fixed effect), and Visit-4 baseline (covariate). An analysis using MMRM method will be conducted as a sensitivity analysis. The least square mean estimates of the treatment effects as well as the 2-sided 95% confidence intervals (CI) of the treatment effects will be derived.
• 1. Change in serum calcium concentration at Weeks 12, 24, 36, 48, and 52 as compared to baseline (Visit 4). This variable will be analyzed using LOCF methodology. ANCOVA will be employed. The model will include treatment (fixed effect), and baseline (covariate). • 2. Change in ferritin, and TSAT at Weeks 12, 24, 36 and 48 as compared to baseline (Visit 4). This variable will be analyzed using LOCF methodology. ANCOVA will be employed. The model will include treatment (fixed effect), and baseline (covariate). • 3. Change in serum iron and TIBC at Weeks 12, 24, 36, 48, and 52 as compared to baseline (Visit 4). This variable will be analyzed using LOCF methodology. ANCOVA will be employed. The model will include treatment (fixed effect), and baseline (covariate). • 4. Change in Ca x P product at Weeks 12, 24, 36, 48, and 52 as compared to baseline (Visit 4). This variable will be analyzed using LOCF methodology. ANCOVA will be employed. The model will include treatment (fixed effect), and baseline (covariate). • 5. Change in iPTH at Weeks 12, 36, 52, and 56 as compared to baseline (Visit 4). This variable will be analyzed using LOCF methodology. ANCOVA will be employed. The model will include treatment (fixed effect), and baseline (covariate). • 6. Change in serum […], vitamin A, vitamin B-12, vitamin E, vitamin K and folic acid at Weeks 12, 36, and 52 as compared to baseline (Visit 4). This variable will be analyzed using LOCF methodology. ANCOVA will be employed. The model will include treatment (fixed effect), and baseline (covariate). • 7. Change in serum bicarbonate concentration at Weeks 12, 36, and 52 as compared to baseline (Visit 4). This variable will be analyzed using LOCF methodology. ANCOVA will be employed. The model will include treatment (fixed effect), and baseline (covariate). • 8. Change in IV iron intake at Weeks 12, 24, 36, 48, and 52 as compared to baseline (Visit 4). This variable will be analyzed using LOCF methodology. ANCOVA will be employed. The model will include treatment (fixed effect), and baseline (covariate). • 9. Change in the use of EPO (ESA) administered at Weeks 12, 24, 36, 48, and 52 as compared to baseline (Visit 4). This variable will be analyzed using LOCF methodology. ANCOVA will be employed. The model will include treatment (fixed effect), and baseline (covariate). • 10. Change in the use of Vitamin D supplementation (and its analogs) and Sensipar (cinacalcet) at Weeks 12, 24, 36, 48, and 52 as compared to baseline (Visit 4). This variable will be analyzed using LOCF methodology. ANCOVA will be employed. The model will include treatment (fixed effect), and baseline (covariate). • 11. Change in LDL, HDL, and triglycerides at Weeks 12, 36, and 52 as compared to baseline (Visit 4). This variable will be analyzed using LOCF methodology. ANCOVA will be employed. The model will include treatment (fixed effect), and baseline (covariate).

Question: With “iron (+3), x (1, 2, 3-propanetricarboxylic acid, 2-hydroxy-), y (H2O) [KRX-0502]” as the substance, how does the “differences in serum calcium levels and liver enzymes (ALT, AST)” value ([1]; KRX-0502 vs placebo) read?
Answer: no clinically meaningful or statistically significant differences

Question: What about the “Serious adverse events, % of subjects” value ([1]; Phase 2 study) of the same substance?
Answer: 8%

Question: What about the “Serious adverse events, number of subjects” value ([1]; Phase 2 study) of the same substance?
Answer: six

Question: What about the “study discontinuations due to hypophosphatemia” value ([1]; Phase 2 study) of the same substance?
Answer: no study discontinuations due to hypophosphatemia

Question: And the safety and tolerability ([1]; Phase 2 study, safety population)?
Answer: safe and well-tolerated

Question: And the discontinuation rates ([1]; including Treatment Failures)?
Answer: 19%

Question: What about the “Product Of Calcium And Phosphorus, Mean” value ([2]; Baseline, Table 12) of the same substance?
Answer: 65.4075

Question: What about the “Product Of Calcium And Phosphorus, Median” value ([2]; Baseline, Table 12) of the same substance?
Answer: 62.7000

Question: And the “Product Of Calcium And Phosphorus, Week 12 Change from Baseline, Mean” value ([2]; Table 12)?
Answer: −16.5635

Question: And the “Product Of Calcium And Phosphorus, Week 12 Change from Baseline, Median” value ([2]; Table 12)?
Answer: −16.7400

Question: And the “Product Of Calcium And Phosphorus, LS Mean” value ([2]; Week 12, ANCOVA, Table 12)?
Answer: 48.97

Question: What about the “Product Of Calcium And Phosphorus, Mean” value ([2]; Week 12, Table 12) of the same substance?
Answer: 48.8440

Question: What about the “Product Of Calcium And Phosphorus, Median” value ([2]; Week 12, Table 12) of the same substance?
Answer: 47.5000

Question: And the “Product Of Calcium And Phosphorus, Treatment Differences, LS Mean (KRX-0502) − LS Mean (Control)” value ([2]; Week 12, control = sevelamer carbonate as a single agent)?
Answer: 1.45
